Laboratory results taken from ChEMBL document CHEMBL1201862, “PubChem BioAssay data set” (2004).
Active and inactive are the calls of the source.

What was measured:
[1] = biological target: T1, Short transient receptor potential channel 4 (Mus musculus, UniProt Q9QUQ5); assay: calcium entry via TRPC4 opening agents – cell-based, HEK293 TRPC4/mu-opioid, Fluo-4 calcium, dose response (AID 434937); format: functional
T1 sequence (Q9QUQ5 whole entry): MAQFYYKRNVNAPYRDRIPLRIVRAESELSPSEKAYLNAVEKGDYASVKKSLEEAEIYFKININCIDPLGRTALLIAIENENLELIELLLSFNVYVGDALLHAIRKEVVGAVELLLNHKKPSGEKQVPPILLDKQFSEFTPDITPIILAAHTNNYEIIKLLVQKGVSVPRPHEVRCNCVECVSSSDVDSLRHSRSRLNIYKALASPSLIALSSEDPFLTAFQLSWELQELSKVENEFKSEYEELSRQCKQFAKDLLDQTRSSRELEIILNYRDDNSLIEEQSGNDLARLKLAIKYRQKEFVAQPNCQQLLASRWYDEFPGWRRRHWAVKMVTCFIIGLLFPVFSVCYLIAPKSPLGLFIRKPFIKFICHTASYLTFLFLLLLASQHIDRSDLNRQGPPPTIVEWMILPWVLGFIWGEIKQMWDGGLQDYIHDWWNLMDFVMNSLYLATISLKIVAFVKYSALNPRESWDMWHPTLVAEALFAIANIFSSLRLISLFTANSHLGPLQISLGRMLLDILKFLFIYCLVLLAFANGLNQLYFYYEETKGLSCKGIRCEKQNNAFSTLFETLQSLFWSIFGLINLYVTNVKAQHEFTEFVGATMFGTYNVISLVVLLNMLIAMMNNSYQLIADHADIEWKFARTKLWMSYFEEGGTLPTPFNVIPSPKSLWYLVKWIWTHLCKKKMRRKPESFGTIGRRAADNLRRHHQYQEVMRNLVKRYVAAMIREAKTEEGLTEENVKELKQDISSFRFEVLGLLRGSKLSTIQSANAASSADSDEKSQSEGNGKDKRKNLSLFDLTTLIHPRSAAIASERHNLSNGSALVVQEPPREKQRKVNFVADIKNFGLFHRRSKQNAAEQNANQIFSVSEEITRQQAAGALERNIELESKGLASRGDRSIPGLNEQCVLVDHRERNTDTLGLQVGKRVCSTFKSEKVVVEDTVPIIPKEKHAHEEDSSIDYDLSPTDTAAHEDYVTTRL

[2] = biological target: Delta-type opioid receptor (Homo sapiens, UniProt P41143); assay: Counterscreen for agonists of heterodimerization of the mu 1 (OPRM1) and delta 1 (OPRD1) opioid receptors: Luminescence-based cell-based high throughput dose response assay to identify agonists of OPRD1 homodimerization. [Related pubchem assays (depositor defined):AID504326, AID504355, AID504692, AID504904, AID504905]; format: functional
Mu-type opioid receptor = Mu-type opioid receptor (Homo sapiens, UniProt P35372); assay: Counterscreen for agonists of heterodimerization of the mu 1 (OPRM1) and delta 1 (OPRD1) opioid receptors: Luminescence-based cell-based high throughput dose response assay to identify agonists of OPRM1 homodimerization.; format: functional;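 also: U2OS cells expressing OPRM1 and beta-arrestin as split beta-galactosidase partners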
[3] = biological target: 5-hydroxytryptamine receptor 5A (Homo sapiens, UniProt P47898); assay: Counterscreen for agonists of OPRM1-OPRD1 heterodimerization: luminescence-based cell-based high throughput dose response assay to identify agonists of 5-hydroxytryptamine (serotonin) 5A receptor (HTR5A). [Related pubchem assays (depositor defined):AID504326, AID504355, AID504692, AID504904, AID504905]; format: functional
[4] = biological target: T2, Corticotropin-releasing factor receptor 2/Corticotropin-releasing factor-binding protein (Homo sapiens, UniProt P24387+Q13324); assay: Dose Response confirmation of uHTS hits for small molecule antagonists of the CRF-binding protein and CRF-R2 receptor complex.; format: functional; details: read-out: IC50_Mean
T2 sequence (Q13324 whole entry): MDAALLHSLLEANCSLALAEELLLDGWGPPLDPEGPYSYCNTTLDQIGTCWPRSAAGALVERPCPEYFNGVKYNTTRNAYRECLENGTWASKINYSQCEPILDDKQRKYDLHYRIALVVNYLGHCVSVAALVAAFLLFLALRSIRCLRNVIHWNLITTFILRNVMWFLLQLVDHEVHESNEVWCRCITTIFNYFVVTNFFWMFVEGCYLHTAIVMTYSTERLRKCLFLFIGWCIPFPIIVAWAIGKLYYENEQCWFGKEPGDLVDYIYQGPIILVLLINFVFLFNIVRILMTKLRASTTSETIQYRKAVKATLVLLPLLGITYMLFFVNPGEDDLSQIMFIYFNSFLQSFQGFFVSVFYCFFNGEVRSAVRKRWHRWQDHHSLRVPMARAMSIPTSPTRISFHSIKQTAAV
T2 sequence (P24387 whole entry): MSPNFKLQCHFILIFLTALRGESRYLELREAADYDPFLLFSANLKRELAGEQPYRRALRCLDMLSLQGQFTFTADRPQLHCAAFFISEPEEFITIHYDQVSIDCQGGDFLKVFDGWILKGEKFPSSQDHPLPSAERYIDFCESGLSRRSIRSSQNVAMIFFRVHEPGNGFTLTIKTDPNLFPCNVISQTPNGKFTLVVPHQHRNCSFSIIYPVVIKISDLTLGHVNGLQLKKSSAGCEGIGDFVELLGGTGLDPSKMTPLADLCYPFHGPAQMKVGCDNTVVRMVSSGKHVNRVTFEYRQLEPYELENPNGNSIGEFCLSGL

[5] = biological target: T2, Corticotropin-releasing factor receptor 2/Corticotropin-releasing factor-binding protein; assay: activators of CRF receptor 2 with binding protein – uHTS hits, confirmation (AID 602473); format: functional; details: read-out: EC50_Mean
Caspase-3 = biological target: T3, Caspase-3 (Homo sapiens, UniProt P42574); format: functional;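 also: Dose-response selectivity test against caspase-3 for candidate inhibitors of sentrin-specific proteases (SENPs)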
T3 sequence (P42574 whole entry): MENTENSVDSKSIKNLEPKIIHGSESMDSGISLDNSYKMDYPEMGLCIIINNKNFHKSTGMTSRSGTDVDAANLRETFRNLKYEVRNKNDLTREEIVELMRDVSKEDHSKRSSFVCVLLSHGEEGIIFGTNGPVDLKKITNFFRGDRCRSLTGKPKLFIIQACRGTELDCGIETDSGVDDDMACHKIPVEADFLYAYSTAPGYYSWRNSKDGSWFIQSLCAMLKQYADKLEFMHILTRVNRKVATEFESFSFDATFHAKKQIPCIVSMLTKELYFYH

[6] = biological target: T4, Sentrin-specific protease 7 (Homo sapiens, UniProt Q9BQF6); format: functional;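 also: Luminescence-based dose-response confirmation of ultra-high-throughput screening hits, measuring inhibition of SENP7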
T4 sequence (Q9BQF6 whole entry): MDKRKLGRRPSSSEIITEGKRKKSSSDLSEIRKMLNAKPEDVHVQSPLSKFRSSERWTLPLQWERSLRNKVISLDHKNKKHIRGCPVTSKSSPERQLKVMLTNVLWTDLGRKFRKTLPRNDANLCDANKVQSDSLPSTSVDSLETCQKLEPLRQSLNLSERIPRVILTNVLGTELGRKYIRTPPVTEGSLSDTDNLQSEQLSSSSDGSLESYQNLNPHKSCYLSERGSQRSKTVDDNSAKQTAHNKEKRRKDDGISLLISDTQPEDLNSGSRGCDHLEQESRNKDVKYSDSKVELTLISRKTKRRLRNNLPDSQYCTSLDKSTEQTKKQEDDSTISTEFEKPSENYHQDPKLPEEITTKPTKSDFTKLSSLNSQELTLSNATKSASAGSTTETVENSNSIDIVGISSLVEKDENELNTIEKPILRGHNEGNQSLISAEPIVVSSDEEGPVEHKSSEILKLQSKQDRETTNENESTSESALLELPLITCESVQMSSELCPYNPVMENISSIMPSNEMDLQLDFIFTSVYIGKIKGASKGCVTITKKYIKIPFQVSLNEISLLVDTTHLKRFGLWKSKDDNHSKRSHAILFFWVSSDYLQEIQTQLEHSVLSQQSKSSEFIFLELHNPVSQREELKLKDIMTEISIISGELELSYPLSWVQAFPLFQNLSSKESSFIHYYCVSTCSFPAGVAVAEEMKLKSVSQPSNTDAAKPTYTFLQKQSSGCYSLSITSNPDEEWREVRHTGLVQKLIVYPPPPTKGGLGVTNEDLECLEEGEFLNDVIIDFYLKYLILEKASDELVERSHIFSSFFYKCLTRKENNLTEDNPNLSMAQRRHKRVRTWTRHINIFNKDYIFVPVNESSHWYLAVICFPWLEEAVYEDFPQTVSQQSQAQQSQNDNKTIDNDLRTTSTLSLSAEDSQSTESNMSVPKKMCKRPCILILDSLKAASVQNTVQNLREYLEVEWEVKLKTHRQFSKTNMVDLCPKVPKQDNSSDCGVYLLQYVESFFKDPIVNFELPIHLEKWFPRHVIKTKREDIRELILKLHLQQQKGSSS

[7] = biological target: T5, Sentrin-specific protease 6 (Homo sapiens, UniProt Q9GZR1); format: functional;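 also: Luminescence-based dose-response confirmatory assay of SENP6 inhibition, following up an ultra-high-throughput screen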
T5 sequence (Q9GZR1 whole entry): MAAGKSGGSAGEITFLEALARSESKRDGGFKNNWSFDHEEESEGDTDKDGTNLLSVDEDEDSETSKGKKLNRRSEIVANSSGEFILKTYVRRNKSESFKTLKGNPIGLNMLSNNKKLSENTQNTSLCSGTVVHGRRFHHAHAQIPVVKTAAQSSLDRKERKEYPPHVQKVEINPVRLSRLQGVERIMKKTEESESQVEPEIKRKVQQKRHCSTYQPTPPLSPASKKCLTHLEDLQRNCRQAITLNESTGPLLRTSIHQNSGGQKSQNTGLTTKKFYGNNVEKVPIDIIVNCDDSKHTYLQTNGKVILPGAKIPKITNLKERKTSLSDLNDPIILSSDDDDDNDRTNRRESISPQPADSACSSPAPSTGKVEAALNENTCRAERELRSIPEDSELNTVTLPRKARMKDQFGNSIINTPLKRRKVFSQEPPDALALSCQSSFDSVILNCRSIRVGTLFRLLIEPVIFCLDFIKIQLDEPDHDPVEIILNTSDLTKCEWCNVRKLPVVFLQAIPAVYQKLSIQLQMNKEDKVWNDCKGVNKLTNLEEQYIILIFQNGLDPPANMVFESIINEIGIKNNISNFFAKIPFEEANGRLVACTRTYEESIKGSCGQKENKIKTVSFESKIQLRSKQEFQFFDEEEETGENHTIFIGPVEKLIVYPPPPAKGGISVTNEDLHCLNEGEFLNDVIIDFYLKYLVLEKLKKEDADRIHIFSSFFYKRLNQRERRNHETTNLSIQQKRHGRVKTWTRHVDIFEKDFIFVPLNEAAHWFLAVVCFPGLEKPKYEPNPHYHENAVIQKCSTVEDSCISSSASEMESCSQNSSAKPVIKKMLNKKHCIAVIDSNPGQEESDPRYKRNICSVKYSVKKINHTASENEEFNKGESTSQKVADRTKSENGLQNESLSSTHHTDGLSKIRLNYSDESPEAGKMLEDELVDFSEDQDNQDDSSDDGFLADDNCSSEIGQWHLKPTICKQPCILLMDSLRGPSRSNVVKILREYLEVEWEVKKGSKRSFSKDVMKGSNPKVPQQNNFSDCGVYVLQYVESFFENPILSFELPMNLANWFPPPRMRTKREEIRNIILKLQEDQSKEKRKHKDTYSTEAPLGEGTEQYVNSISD

[8] = biological target: T6, Sentrin-specific protease 8 (Homo sapiens, UniProt Q96LD8); format: functional;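 also: luminescence read-out of SENP8 inhibition, dose-response confirmation following an ultra-high-throughput screen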
T6 sequence (Q96LD8 whole entry): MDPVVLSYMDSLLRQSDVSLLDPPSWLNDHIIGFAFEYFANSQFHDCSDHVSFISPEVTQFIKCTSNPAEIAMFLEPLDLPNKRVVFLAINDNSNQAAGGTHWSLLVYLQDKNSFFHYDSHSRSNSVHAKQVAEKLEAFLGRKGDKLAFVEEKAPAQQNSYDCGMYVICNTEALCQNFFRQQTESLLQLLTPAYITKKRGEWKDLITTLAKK

[9] = viability of uninfected HEp-2 cells – cell-based, HTS, cytotoxicity control for RSV inhibitor project, dose response (AID 2410); format: functional; details: human respiratory syncytial virus
Cytochrome P450 3A4 = Cytochrome P450 3A4 (Homo sapiens, UniProt P08684);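 also: CYP3A4 tested as one member of a cytochrome P450 panel screen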
[10] = biological target: T7, Carboxy-terminal domain RNA polymerase II polypeptide A small phosphatase 1 (Homo sapiens, UniProt Q9GZU7); assay: CTDSP1 inhibitors, concentration-response, biochemical, absorbance readout, ultra-high-throughput screen actives (AID 540297); format: functional
T7 sequence (Q9GZU7 whole entry): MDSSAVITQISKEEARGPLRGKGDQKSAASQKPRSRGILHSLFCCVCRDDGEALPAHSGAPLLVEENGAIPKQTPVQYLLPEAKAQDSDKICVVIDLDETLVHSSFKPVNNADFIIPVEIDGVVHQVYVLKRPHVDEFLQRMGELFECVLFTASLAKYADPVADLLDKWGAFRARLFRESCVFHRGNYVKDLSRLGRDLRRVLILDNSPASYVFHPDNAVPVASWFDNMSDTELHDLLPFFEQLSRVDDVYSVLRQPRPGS

[11] = biological target: T8, Probable nicotinate-nucleotide adenylyltransferase (Staphylococcus aureus (strain N315), UniProt P65502); format: functional, Staphylococcus aureus subsp. aureus N315;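 as to IC50 Mean: confirmatory dose-response retesting of NadD inhibitor hits first found in an ultra-high-throughput screen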
[12] = biological target: T8, Probable nicotinate-nucleotide adenylyltransferase; format: functional, Staphylococcus aureus subsp. aureus N315; details: read-out: IC50_Mean

Mu-type opioid receptor, sequence (P35372 whole entry): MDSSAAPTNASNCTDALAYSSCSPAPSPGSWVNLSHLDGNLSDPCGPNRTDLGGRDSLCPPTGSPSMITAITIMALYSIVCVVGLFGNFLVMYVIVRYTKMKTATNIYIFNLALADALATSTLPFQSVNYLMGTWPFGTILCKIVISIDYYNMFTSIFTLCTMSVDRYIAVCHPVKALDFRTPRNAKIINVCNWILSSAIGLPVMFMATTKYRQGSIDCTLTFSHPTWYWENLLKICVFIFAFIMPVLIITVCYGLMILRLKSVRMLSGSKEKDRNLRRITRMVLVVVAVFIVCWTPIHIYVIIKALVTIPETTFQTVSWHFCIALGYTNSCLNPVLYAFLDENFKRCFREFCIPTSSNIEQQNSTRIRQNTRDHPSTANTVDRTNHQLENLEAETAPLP
5-hydroxytryptamine receptor 5A, sequence (P47898 whole entry): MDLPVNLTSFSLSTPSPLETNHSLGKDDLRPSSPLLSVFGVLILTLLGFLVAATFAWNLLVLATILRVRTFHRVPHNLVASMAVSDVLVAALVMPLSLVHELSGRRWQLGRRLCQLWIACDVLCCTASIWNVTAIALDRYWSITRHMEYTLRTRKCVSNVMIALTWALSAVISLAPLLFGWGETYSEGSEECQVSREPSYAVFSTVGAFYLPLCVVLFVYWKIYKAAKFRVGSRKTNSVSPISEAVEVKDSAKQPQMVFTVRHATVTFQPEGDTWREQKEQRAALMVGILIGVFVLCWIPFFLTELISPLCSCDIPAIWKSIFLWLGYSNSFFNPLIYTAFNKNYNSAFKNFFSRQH
Delta-type opioid receptor, sequence (P41143 whole entry): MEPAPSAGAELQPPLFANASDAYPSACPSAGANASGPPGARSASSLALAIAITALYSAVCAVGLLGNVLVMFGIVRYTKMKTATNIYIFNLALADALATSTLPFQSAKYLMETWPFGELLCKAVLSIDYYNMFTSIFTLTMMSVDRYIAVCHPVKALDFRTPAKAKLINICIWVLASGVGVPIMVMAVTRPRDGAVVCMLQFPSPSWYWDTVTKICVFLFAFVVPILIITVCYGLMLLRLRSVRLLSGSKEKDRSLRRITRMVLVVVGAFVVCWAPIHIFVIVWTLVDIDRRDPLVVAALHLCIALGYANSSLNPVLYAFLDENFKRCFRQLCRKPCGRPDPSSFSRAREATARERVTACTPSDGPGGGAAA
Cytochrome P450 3A4, sequence (P08684 whole entry, the tested form may be a part): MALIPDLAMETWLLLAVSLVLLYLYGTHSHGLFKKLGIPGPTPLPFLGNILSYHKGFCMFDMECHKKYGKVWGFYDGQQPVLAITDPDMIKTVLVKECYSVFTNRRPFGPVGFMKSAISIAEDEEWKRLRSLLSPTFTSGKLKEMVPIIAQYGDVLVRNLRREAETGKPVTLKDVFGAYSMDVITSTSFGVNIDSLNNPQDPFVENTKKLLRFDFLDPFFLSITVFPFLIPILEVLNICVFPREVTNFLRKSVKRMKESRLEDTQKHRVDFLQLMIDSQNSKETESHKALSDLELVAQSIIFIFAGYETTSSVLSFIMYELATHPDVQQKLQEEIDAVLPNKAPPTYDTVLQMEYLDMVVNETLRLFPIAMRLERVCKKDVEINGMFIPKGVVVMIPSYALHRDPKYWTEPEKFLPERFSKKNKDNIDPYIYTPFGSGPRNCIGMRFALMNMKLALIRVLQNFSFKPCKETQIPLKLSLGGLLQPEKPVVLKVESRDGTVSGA

Row | IC50 (Caspase-3) | IC50 [6] | IC50 [7] | SMILES | IC50 [8] | other results
1 |  |  |  | COc1ccc(-c2nn(-c3ccccc3C)cc2CNCc2cccnc2)cc1F |  | EC50 [1]: 3.76 µM (active); EC50 [2]: > 92.5 µM (inactive); EC50 (Mu-type opioid receptor): > 92.5 µM (inactive); EC50 [3]: > 92.5 µM (inactive); IC50 [4]: > 47.1 µM (inactive); EC50 [5]: > 53 µM (inactive)
2 | 26.8 µM (active) | 24.2 µM (active) | 14.9 µM (active) | CC(C)CSC1=NSC2=NC(=O)/C(=C\c3cccs3)C(=N)N12 | 18.5 µM (active) | 
3 | 59.7 µM (active) | 4.87 µM (active) | 15 µM (active) | Oc1c(-c2cc(-c3ccco3)[nH]n2)ccc2ccccc12 | 19.3 µM (active) | 
4 | 4.06 µM (active) | 4.62 µM (active) | 6.55 µM (active) | C/C(=N\NC(=O)c1ccc(Br)cc1)c1ccccc1 | > 100 µM (inactive) | AC50 (Cytochrome P450 3A4): 15.8 µM (inconclusive)
5 |  |  |  | O=C(O)Cc1sc(N/N=C\c2ccccc2)nc1-c1ccccc1 |  | IC50 [10]: 5.14 µM (active); IC50 [11]: 9.86 µM (active); IC50 [12]: 27.7 µM (active)

Row | SMILES | IC50 (Caspase-3) | IC50 [6] | IC50 [7] | IC50 [8] | other results
6 | O=C(COc1ccc2ccccc2c1)Nc1ccccc1C(=O)O | 15.2 µM (active) | 13.4 µM (active) | 25.5 µM (active) | 43.4 µM (active) | CC50 [9]: 32.9 µM (active); IC50 (cells): 41.5 µM (active)
